What all share (assay type): in vivo
Test [1] concerns Corn seeds (Zea mays; variety Pioneer herbicide resistant 33P71). The test can be described thus: Cold stress on corn seedlings after seed treatment. The conditions noted are these: second exposure to cold stress (−5° C., 2 hours, code 13). As to the method: Corn seeds (Zea mays; variety Pioneer herbicide resistant 33P71) were treated using either:
T1: Water (untreated) T2: Pyraclostrobin (5 g active ingredient 100 kg seeds) T3. Azoxystrobin (1 g active ingredient/100 kg seeds)
Subsequently, the treated seeds were planted in plastic pots (6 cm×6 cm×7 cm) filled with sand (metro mix). Seeds were incubated in a growth chamber (Conviron) at 25° C. and 60% humidity under a dark/light cycle of 16/8 h for 5 days (seedlings were at code 10). At this point, seedlings were exposed to a temperature of −5° C. for 3 hours. Following cold stress, the viable seedlings were kept growing until they had reached code 13. At this stage, they were submitted to additional 2 hours of cold stress at −5° C. Finally, the number of damaged seedlings (%) for each seed treatment was recorded.

Test [2] has as its system Arabidopsis thaliana plants. The test can be described thus: Cold/freezing stress on Arabidopsis thaliana plants, visual assessment of % leaf damage. Conditions: for reduction of cold stress symptoms: Arabidopsis plants under different stress conditions. As to the method: Arabidopsis thaliana plants were grown in pots (8 cm diameter) under controlled environmental conditions at 21° C. during the day and at 19° C. during the night, under a light regiment of 9 h light and 15 h dark per day.
Chemical treatment was done 18 days after sowing. Each pot was treated with 500 μl of spray solution according to the treatment schedule below with a commercial pump spray applicator.
2) Orysastrobin (250 ppm) 3) Orysastrobin (500 ppm) 4) Pyraclostrobin (500 ppm)
After chemical treatment, the pots have been transferred to the same growth conditions for three days. Then the pots were transferred to three different environmental conditions to exert cold stress:
Control plants (A) were kept under the same conditions as described above.
Stressed plants (B) were transferred for 2 days to 6° C. under a 9-15 h day-night cycle. This cold treatment allows Arabidopsis plants to acclimate to a certain extent to the following freezing stress (−4° C., 24 h in the dark) (Wanner et al., 1999, Cold-induced freezing tolerance in Arabidopsis, Plant Physiology 120, 391-399).
Stressed plants (C) were not cold-hardened and kept for another 2 days under control environment before being transferred for one day to −4° C. without light.
After these treatments, all pots were returned to standard growth conditions (controlled environmental conditions) as described above.
3 days and 9 days after chemical treatment (3 days after recovery from freezing treatment) the trial was evaluated by visual assessment, scoring the symptoms in % leaf damage.

Test [3] has as its system Adult Citrus trees (Citrus sinensis). Description: Field freeze protection of adult Citrus trees by leaf application. Conditions: three 1600 g/ha leaf applications at 14 to 18 day intervals. As to the method: Adult Citrus trees (Citrus sinensis) were treated by three 1600 g/ha pyraclostrobin leaf applications at 14 to 18 day intervals. Applications began shortly before the initial freeze in winter seasons. Temperatures dropped to −6° C. in three separate cold weather events. With extreme low temperatures, nothing is expected to reduce damage.

The mark [4] stands for this setting: stress condition A (control plants, 21° C./19° C., no cold stress), 500 ppm spray, 9 days after chemical treatment.
Setting [5] is: stress condition B (2 days 6° C. hardening, then −4° C. 24 h dark), 500 ppm spray, 3 days after recovery from freezing.
The mark [6] stands for this setting: stress condition C (not cold-hardened, −4° C. 24 h dark), 500 ppm spray, 3 days after recovery from freezing.

Turning to `CO/C=C(/C(=O)OC)c1ccccc1Oc1cc(Oc2ccccc2C#N)ncn1` [Azoxystrobin, azoxystrobin], the “number of damaged seedlings (%)” value in test [1] (seed treatment 1 g active ingredient/100 kg seeds) came out at 38%.
With `CNC(=O)/C(=N/OC)c1ccccc1CO/N=C(C)/C(=N/OC)C(/C)=N/OC` [Orysastrobin, orysastrobin], the “reduction of cold stress symptoms” value in test [2] is recorded as “highly effective to reduce cold stress symptoms”. Besides, the leaf damage in test [2] (stress condition A (control plants, 21° C./19° C., no cold stress), 250 ppm spray, 9 days after chemical treatment) was 0%; in test [2] (setting [4]), 0%; in test [2] (stress condition B (2 days 6° C. hardening, then −4° C. 24 h dark), 250 ppm spray, 3 days after recovery from freezing), 0%; in test [2] (setting [5]), 0%; in test [2] (stress condition C (not cold-hardened, −4° C. 24 h dark), 250 ppm spray, 3 days after recovery from freezing), 5%; in test [2] (setting [6]), 10%.
As to pyraclostrobin, in test [2], the “reduction of cold stress symptoms” value is reported as “highly effective to reduce cold stress symptoms”. The results for the leaf damage in test [2] (setting [4]), in test [2] (setting [5]) and in test [2] (setting [6]) were 0%, 0% and 30%, respectively. Also, the “chilling protection in citrus” value in test [3] (temperatures dropped to −6° C.) is recorded as “strong chilling protection”. Besides, the “leaf burn symptoms and fruit drop versus untreated control plants” value in test [3] (temperatures dropped to −6° C. in three cold weather events) is “less leaf burn symptoms and fruit drop”. In addition, the “number of damaged seedlings (%)” value in test [1] (seed treatment 5 g active ingredient 100 kg seeds) is 0%.

Values taken from patent US20090186762A1, “METHOD FOR IMPROVING THE TOLERANCE OF PLANTS TO CHILLING TEMPERATURES AND/OR FROST” (BASF SE, priority 2006, published 2009).
